Test results taken from patent US20220184071A1, “GEPOTIDACIN FOR USE IN THE TREATMENT OF BACTERIAL URINARY TRACT INFECTIONS” (GlaxoSmithKline Intellectual Property Development Limited, priority 2019, published 2022).
≈ marks a conversion by molar mass, not a printed value. Like-named read-outs stand apart in the source and are kept apart here.

Legend:
[1] = MIC, conclusion to Example 1 Methods 1 and 2; format: cell-based; conditions: at least one strain of every organism listed
Procedure: (§1) Antimicrobial activity was determined by broth microdilution using the CLSI recommended procedure.
(§2) Antimicrobial activity was determined in a second study by […] using the CLSI recommended procedure in serial two-fold dilutions and the minimum inhibitory concentration (MIC) was determined as the lowest concentration of the compound that inhibited visible growth.

[2] = tested on: Staphylococcus saprophyticus; assay: MIC by CLSI broth microdilution in CAMHB and urine, Example 1 Method 3; format: cell-based; conditions: for Mean MIC: n = 6; for MIC: Staphylococcus saprophyticus
Procedure: as §1
The compounds were tested in serial two-fold dilutions and the minimum inhibitory concentration (MIC) was determined as the lowest concentration of the compound that inhibited visible growth.
In particular, gepotidacin was tested against 6 strains of Staphylococcus saprophyticus from the collection of isolates at Laboratory Specialists, Inc., Westlake, Ohio.
Levofloxacin was included as the comparator in the study to determine the effect of urine on the in vitro activity of gepotidacin against Staphylococcus saprophyticus. MICs were determined by broth microdilution according CLSI methods.
The data shown in the table below are results from an in vitro study conducted with the same S. saprophyticus isolates described above, to determine the effect of urine on the in vitro activity of gepotidacin and levofloxacin against S. saprophyticus. Study strains were tested for MICs (minimum inhibitory concentrations) according to reference CLSI broth microdilution method using cation-adjusted Mueller Hinton Broth (CAMHB) and with the addition of 25%, 50% and 100% urine (not pH adjusted, pH 6.42) and 100% urine (pH adjusted, 7.31 and 8.07).

Porphyromonas spp. = assay: MIC by CLSI agar dilution, Example 6 Method 1; format: cell-based; conditions: 26 isolates, read-out: Gepotidacin MIC90
Procedure: Antimicrobial activity was determined by agar dilution using the Clinical and Laboratory Standards Institute (CLSI) recommended procedure.
The compounds were tested in serial two-fold dilutions and the minimum inhibitory concentration (MIC) was determined as the lowest concentration of the compound that inhibited visible growth. Gepotidacin was tested against 333 gram-negative anaerobic and 203 gram-positive anaerobic isolates collected from clinical samples in North America and Europe from 2000 to 2017; the majority collected from 2013 to 2016.
Ceftriaxone, clindamycin, imipenem, metronidazole, moxifloxacin and piperacillin/tazobactam were included as comparators.
Additional analysis was performed from the results of the study described in Method 1 above, to determine the in vitro activity of gepotidacin against gram-negative and gram-positive anaerobic organisms with resistance to ceftriaxone, clindamycin, imipenem, metronidazole, moxifloxacin and piperacillin/tazobactam.

[3] = Exposure in epithelial lining fluid (ELF) and alveolar macrophages (AM), healthy subjects; format: in vivo; conditions: human, single 1000 mg IV infusion over 2 hours
Procedure: Antibiotic target site exposures play a key role as suboptimal levels may lead to therapeutic failure and resistance. Across multiple clinical studies, exposures to gepotidacin were assessed in plasma and other matrices, such as urine, saliva, epithelial lining fluid (ELF) and Alveolar Macrophages (AM).
Bronchoalveolar lavage samples were collected to determine gepotidacin exposures in ELF and AM following a single 1000 mg IV infusion over 2 hours to healthy subjects. Saliva exposure was assessed in healthy volunteers following 1500 mg oral single dose. Gepotidacin exposures in urine was assessed in women with acute uUTI following 1500 mg BID oral doses for 5 days.

Shigella flexneri = assay: MIC by CLSI agar dilution, Example 1 Method 2; format: cell-based; conditions: n=24
Procedure: as §2
(§3) MICs were determined according to CLSI agar dilution guidelines.

Shigella = assay: MIC by CLSI agar dilution, Example 1 Method 2; format: cell-based
Procedure: as §2, §3

Shigella boydii = assay: MIC by CLSI agar dilution, Example 1 Method 2; format: cell-based; conditions: n=3
Procedure: as §2, §3

[4] = tested on: Enterobacter (Enterobacter aerogenes, Enterobacter cloacae complex); assay: MIC by CLSI agar dilution, Example 1 Method 2; format: cell-based; conditions: n = 55
Procedure: as §2, §3

[5] = tested on: Klebsiella oxytoca, Klebsiella variicola, Proteus hauseri and Proteus peneri; assay: MIC by CLSI agar dilution, Example 1 Method 2; format: cell-based; conditions: in each case against at least one isolate
Procedure: as §2, §3

C. koseri = assay: Phase IIa baseline uropathogen susceptibility testing (CLSI broth microdilution); format: cell-based, Citrobacter koseri; conditions: Citrobacter koseri; Participant 1; read-out: GEP MIC
Procedure: This phase IIa single center study evaluated the safety, tolerability, pharmacokinetics, and efficacy of oral gepotidacin 1500 mg BID for 5 days in female subjects with acute cystitis. Clean catch mid-stream urine specimens were obtained for quantitative culture by standard methods. Urine samples were taken from all participants pre-treatment (baseline) and at all post-baseline visits. All urine samples were sent to a central laboratory (PPD Global Clinical Laboratories, Highland Heights, Ky., USA) for Gram stain, quantitative culture, pathogen identification and susceptibility testing. See FIG. 1 for participant disposition and study outline.
Susceptibility testing by CLSI broth microdilution and gradient diffusion (fosfomycin only) was conducted (CLSI, 2015, Methods for dilution antimicrobial susceptibility tests for bacteria that grow aerobically; approved standard-tenth edition; and CLSI, 2018. Performance Standards for Antimicrobial Susceptibility Testing; Twenty-seventh Informational Supplement M100-S28). Inclusion in the microbiological intent-to-treat population (micro-ITT), required growth of a qualifying baseline uropathogen (≥10^5 CFU/mL). See FIG. 2 for the baseline algorithm.

Structure (SMILES): O=c1ccc2ncc(=O)n3c2n1C[C@H]3CN1CCC(NCc2cc3c(cn2)OCCC3)CC1 [gepotidacin, (2R)-2-({4-[(3,4-dihydro-2H-pyrano[2,3-c]pyridin-6-ylmethyl)amino]-1-piperidinyl}methyl)-1,2-dihydro-3H,8H-2a,5,8a-triazaacenaphthylene-3,8-dione]
- MIC [1]: ≤ 8 µg/mL
- MIC range ([2]; 3 isolates of methicillin-resistant S. saprophyticus): 0.06 to 0.5 µg/mL
- MIC range ([2]; 3 isolates of methicillin-susceptible S. saprophyticus): 0.03 to 0.5 µg/mL
- Mean Dilution Difference ([2]; 25% Urine (pH 7.09) vs CAMHB): 0.00
- Mean difference ([2]; 25% Urine (pH 7.09) vs CAMHB): 0.00
- N(%) ± 1 dilution ([2]; 25% Urine (pH 7.09) vs CAMHB): 6 (100%)
- N(%) ± 2 dilution ([2]; 25% Urine (pH 7.09) vs CAMHB): 6 (100%)
- Mean MIC ([2]; 25% Urine (pH 7.09)): 0.11 µg/mL
- Mean Dilution Difference ([2]; 50% Urine (6.99) vs CAMHB): 0.00
- Mean difference ([2]; 50% Urine (6.99) vs CAMHB): 0.00
- N(%) ± 1 dilution ([2]; 50% Urine (6.99) vs CAMHB): 6 (100%)
- N(%) ± 2 dilution ([2]; 50% Urine (6.99) vs CAMHB): 6 (100%)
- Mean MIC ([2]; 50% Urine (6.99)): 0.11 µg/mL
- Mean Dilution Difference ([2]; 100% Urine (pH 6.42) vs CAMHB): 1.18
- Mean difference ([2]; 100% Urine (pH 6.42) vs CAMHB): 0.14
- N(%) ± 1 dilution ([2]; 100% Urine (pH 6.42) vs CAMHB): 4 (66.7%)
- N(%) ± 2 dilution ([2]; 100% Urine (pH 6.42) vs CAMHB): 6 (100%)
- Mean MIC ([2]; 100% Urine (pH 6.42)): 0.24 µg/mL
- Mean Dilution Difference ([2]; 100% Urine (pH 7.31) vs CAMHB): 1.54
- Mean difference ([2]; 100% Urine (pH 7.31) vs CAMHB): 0.21
- N(%) ± 1 dilution ([2]; 100% Urine (pH 7.31) vs CAMHB): 3 (50%)
- N(%) ± 2 dilution ([2]; 100% Urine (pH 7.31) vs CAMHB): 4 (66.7%)
- Mean MIC ([2]; 100% Urine (pH 7.31)): 0.31 µg/mL
- Mean Dilution Difference ([2]; 100% Urine (pH 8.07) vs CAMHB): 1.36
- Mean difference ([2]; 100% Urine (pH 8.07) vs CAMHB): 0.17
- N(%) ± 1 dilution ([2]; 100% Urine (pH 8.07) vs CAMHB): 3 (50%)
- N(%) ± 2 dilution ([2]; 100% Urine (pH 8.07) vs CAMHB): 5 (83.3%)
- Mean MIC ([2]; 100% Urine (pH 8.07)): 0.28 µg/mL
- Mean MIC ([2]; CAMHB (ref. method, pH 7.2)): 0.11 µg/mL
- MIC ([2]; read-out: MICs, heading: MICs, methicillin-susceptible and methicillin-resistant isolates tested (conclusion)): ≤ 0.5 µg/mL
- MIC ([2]; at least one strain of methicillin-susceptible or methicillin-resistant S. saprophyticus, read-out: MIC): ≤ 0.5 µg/mL
- MIC fold lower than levofloxacin ([2]; each of the methicillin-resistant S. saprophyticus): 4 fold
- mean dilution differences (range) ([2]; gepotidacin in 100% urine (conclusion)): 1.18-1.54
- MIC fold lower than levofloxacin ([2]; methicillin-susceptible S. saprophyticus): 8-32 fold
- MIC90 (Porphyromonas spp.): 1 µg/mL (≈ 2.23 µM)
- Kp ([3]; alveolar macrophages, read-out: AM AUC(0-12) ratio to unbound plasma): 178
- Kp ([3]; epithelial lining fluid, read-out: ELF AUC(0-12) ratio to unbound plasma): 1.84
- MIC90 (Shigella flexneri): 2 µg/mL (≈ 4.46 µM)
- % of the tested isolates inhibited at ≤2 mg/L (Shigella; 91 isolates): 95.6%
- % of the tested isolates inhibited at ≤8 mg/L (Shigella; 91 isolates): 100%
- MICs ranged (Shigella; 91 isolates): 0.125 to 8 mg/L
- MIC50 (Shigella; Shigella, n = 91): 1 µg/mL (≈ 2.23 µM)
- MIC90 (Shigella; Shigella, n = 91): 2 µg/mL (≈ 4.46 µM)
- Number of Isolates at Gepotidacin MIC 0.5 mg/L (Shigella; n = 91): 18
- Number of Isolates at Gepotidacin MIC 1 mg/L (Shigella; n = 91): 36
- Number of Isolates at Gepotidacin MIC 2 mg/L (Shigella; n = 91): 19
- Number of Isolates at Gepotidacin MIC 4 mg/L (Shigella; n = 91): 3
- Number of Isolates at Gepotidacin MIC 8 mg/L (Shigella; n = 91): 1
- Number of Isolates at Gepotidacin MIC ≤0.25 mg/L (Shigella; n = 91): 14
- Effect of levofloxacin non-susceptibility or QRDR substitutions in GyrA and ParC on activity (Shigella; where data was available): unaffected
- MIC (Shigella boydii): 2 µg/mL (≈ 4.46 µM)
- MIC50 [4]: 16 µg/mL (≈ 35.7 µM)
- MIC90 [4]: 32 µg/mL (≈ 71.3 µM)
- Number of Isolates at Gepotidacin MIC 2 mg/L [4]: 3
- Number of Isolates at Gepotidacin MIC 4 mg/L [4]: 12
- Number of Isolates at Gepotidacin MIC 8 mg/L [4]: 7
- Number of Isolates at Gepotidacin MIC ≤0.25 mg/L [4]: 1
- Number of Isolates at Gepotidacin MIC ≥16 mg/L [4]: 32
- MIC [5]: ≥ 4 µg/mL
- MIC (C. koseri): 0.5 µg/mL (≈ 1.11 µM)
